Data taken from the OPERA property sets (Mansouri et al. 2018).
Where a SMILES comes first, the peptide text is derived from it. The star is where a group is joined. X1 = O=C(CCCCSc1[nH]cnc2ncnc1-2)*

Row | SMILES | logP
1 | COc1cccc(OC)c1-c1nc2ccncc2[nH]1 | 1.66
2 | O=[N+]([O-])c1c(Cl)c(Cl)cc(Cl)c1Cl | 4.38
3 | CCOC(=O)CNC(=O)CNC(=O)CNC(=O)CNC(=O)CCCCSc1[nH]cnc2ncnc1-2 (X1-GGGG-OEt) | -0.23
4 | CN(C)CCn1nnnc1SCC1=C(C(=O)OCOC(=O)C(C)(C)C)N2C(=O)C(NC(=O)Cc3csc(N)n3)C2SC1 (stereo not drawn) | 1.57
5 | CCN(CC)Cc1cccc(C(=O)Nc2c(C)cccc2C)c1 | 3.09
6 | CC(=O)NC(CCCCN)C(=O)NC(Cc1ccccc1)C(=O)NC(C(N)=O)C(C)C (stereo not drawn) | 0.51
7 | O=[N+]([O-])c1nc(Br)[nH]c1Br | 2.82
8 | CSC(=NOC(=O)N(C)COC1OC(C(=O)O)C(O)C(O)C1O)C(=O)N(C)C (stereo not drawn) | -2.52
9 | CC(C)N(C=Nc1ccn(C2OC(CO)C(O)C2O)c(=O)n1)C(C)C (stereo not drawn) | 0.01
10 | C#CC1(OC(=O)C2=CN(C)C=CC2)CCC2C3CCC4=CC(=O)CCC4(C)C3CCC21C (stereo not drawn) | 4.49
11 | CCN1CC(C(O)C(CC2CCCCC2)NC(=O)C(Cc2c[nH]cn2)NC(=O)C(Cc2ccc(OC)cc2)NC(=O)C(C)C)OC1=O (stereo not drawn) | 2.85
12 | CC1CC2C3CCC4=CC(=O)C=CC4(C)C3(F)C(O)CC2(C)C1(O)C(=O)NCCO (stereo not drawn) | 1.51
13 | CCN1C(=O)C(=O)c2cccc(OC)c2C1=O | 0.94
14 | CN(C)C=Nc1ccn(C2OC(CO)C(O)C2O)c(=O)n1 (stereo not drawn) | -1.68
15 | CN(C)N=Nc1ccc(S(C)(=O)=O)cc1 | 1.59
16 | Cc1nc([N+](=O)[O-])c(Cl)n1C | 0.34
17 | COCCNC(=S)Cn1cnc([N+](=O)[O-])n1 | 0.25
18 | CCC(=O)C1(c2cccc(OC(C)=O)c2)CCN(C)CC1 | 1.05
19 | C[C@H](O)C(=O)Nc1c(I)c(C(=O)NC(CO)CO)c(I)c(C(=O)NC(CO)CO)c1I | -2.42
20 | Cc1nc([N+](=O)[O-])c(C)[nH]1 | 0.43
21 | COCCn1cnc2c(=O)[nH]c(Nc3ccccc3)nc21 | 1.2
22 | CCCCCOc1cccc(NC(=O)OCCN2CCOCC2)c1 | 4.13
23 | CN(C)N=Nc1cccc(C(N)=O)c1 | 1.3
24 | CN(C)N=Nc1ccc([N+](=O)[O-])cc1 | 3.25
25 | CCCOc1ccc(NC(=O)OCCN2CCOCC2)cc1 | 2.78

Row | SMILES | logP
26 | CC(C)C(=O)Nc1cc(C(F)(F)F)ccc1S(N)(=O)=O | 2.45
27 | CN(CC1(C)CCCO1)S(=O)(=O)c1ccc(Cl)c(S(N)(=O)=O)c1 (stereo not drawn) | 1.54
28 | CCN(CC)S(=O)(=O)N(CC)C1C=C2c3cccc4[nH]cc(c34)CC2N(C)C1 (stereo not drawn) | 3.09
29 | CC(C)(C)NC(=O)C1CN(S(=O)(=O)c2cccc3cccnc23)CCN1CC(O)CC(Cc1ccccc1)C(=O)NC1c2ccccc2CC1O (stereo not drawn) | 3.7
30 | Cc1ccccc1CO[C@H]1C[C@]2(C(C)C)CC[C@@]1(C)O2 (single isomer, unassigned) | 4.62
31 | Clc1cc(Cl)c2c(c1)Oc1c(cc(Cl)c(Cl)c1Cl)O2 | 6.53
32 | CCOC(=O)Cn1ccnc1[N+](=O)[O-] | 0.33
33 | c1ccc(SCc2ccc(CCCN3CCOCC3)cc2)cc1 | 3.62
34 | COC1=C(C)C(=O)c2c(c(COC(N)=O)c3n2CCC3OC(C)=O)C1=O (stereo not drawn) | 1.54
35 | CCCCCCC(=O)OC(C(=O)NC1C(=O)N2C(C(=O)O)=C(C)CSC12)c1ccccc1 (stereo not drawn) | 3.23
36 | CN(C)N=Nc1ccc(CC(=O)O)cc1 | 1.38
37 | CCCN(C=Nc1ccn(C2CC(O)C(CO)O2)c(=O)n1)CCC (stereo not drawn) | 0.4
38 | O=C1CC(Sc2nc3ccccc3s2)N1 (stereo not drawn) | 2.3
39 | CSC(SC)=C(C(=O)OC(C)C)C(=O)OC(C)C | 3.38
40 | Clc1ccc(Sc2nc(C(Cl)(Cl)Cl)nc(C(Cl)(Cl)Cl)n2)cc1 | 6.67
41 | CC(=O)NC(CCCCN)C(=O)NC(CC(C)C)C(N)=O (stereo not drawn) (Ac-Lys-Leu-NH2; configuration not given here) | -0.26
42 | CCC1(CC)OCC(c2ccc(NC(=O)N(C)C)cc2C)CO1 | 2.76
43 | Cc1ncc([N+](=O)[O-])n1CCc1ccncc1 | 0.06
44 | OCC1CC(F)C(n2cnc3c(Br)ncnc32)O1 (stereo not drawn) | 0.44
45 | CCC(CC)C(=O)NS(=O)(=O)c1ccc(C(F)(F)F)cc1N | 3.04
46 | CC(=O)NC(CCCCN)C(=O)NC(Cc1ccccc1)C(=O)NC(CC(C)C)C(N)=O (stereo not drawn) (Ac-Lys-Phe-Leu-NH2; configuration not given here) | 0.98
47 | Clc1cc(Cl)cc(-c2c(Cl)cc(Cl)c(Cl)c2Cl)c1 | 7.1
48 | O=[N+]([O-])C=C1NCCN1Cc1ccncc1 | -1.05
49 | CC(OCc1cn(C)c(C=NO)n1)C(C)(C)C (stereo not drawn) | 2.53
50 | CCCN1CC(NS(=O)(=O)N(CC)CC)C=C2c3cc(O)ccc3CCC21 (stereo not drawn) | 2.63

Row | SMILES | logP
51 | C#CCC(O)(c1cccnc1)c1ccc(Cl)c(Cl)c1 (stereo not drawn) | 2.42
52 | CN1C(C(=O)Nc2nccs2)=C(O)c2ccccc2S1(=O)=O | 1.64
53 | Clc1cc(-c2cc(Cl)c(Cl)c(Cl)c2Cl)c(Cl)c(Cl)c1Cl | 8.68
54 | Clc1ccc(Cl)c(-c2cc(Cl)c(Cl)c(Cl)c2Cl)c1 | 7.19
55 | Cc1nc(Cl)c([N+](=O)[O-])n1C | 0.87
56 | Fc1ccc(C(c2ccc(F)cc2)N2CCN(C/C=C/c3ccccc3)CC2)cc1 | 5.78
57 | CSC1=NCCN1c1ccc([N+](=O)[O-])o1 | 1.19
58 | CC(=O)OCC(O)Cn1ccnc1[N+](=O)[O-] (stereo not drawn) | -0.37
59 | O=C(NCCCCO)C(F)(F)Cn1ccnc1[N+](=O)[O-] | -0.29
60 | CCCNC(=O)C1(O)C(C)CC2C3CCC4=CC(=O)C=CC4(C)C3(F)C(O)CC21C (stereo not drawn) | 2.59
61 | N#CC(C#N)=NNc1ccc(/N=N/c2ccccc2)cc1 | 4.25
62 | COc1cccc(OCc2ccccc2CCCN2CCC(O)CC2)c1 | 3.35
63 | Clc1ccc(Cl)c(-c2cccc(Cl)c2Cl)c1 | 5.81
64 | COc1cc(O)cc(OC)c1O | 0.17
65 | COC(=O)n1cnc(CC(NC(=O)C2CCC(=O)N2)C(=O)N2CCCC2C(N)=O)c1 (stereo not drawn) | -1.88
66 | CC(C)(C)C(=O)OCOC(=O)C1=C(CSc2nncs2)CSC2C(NC(=O)Cn3cnnn3)C(=O)N12 (stereo not drawn) | 1.45
67 | CCCCOC(=O)NCCn1c([N+](=O)[O-])cnc1C | 1.22
68 | CCC(=O)C1(c2cccc(O)c2)CCN(C)CC1 | 1.02
69 | Clc1cc(Cl)c(-c2ccc(Cl)c(Cl)c2Cl)c(Cl)c1 | 7.25
70 | CN(C)C=Nc1ccn(C2CC(O)C(CO)O2)c(=O)n1 (stereo not drawn) | -1.54
71 | FC(F)(F)C(F)(F)c1ccccc1 | 3.36
72 | CN1CCN(Cc2ccc(Cl)nc2)C1=N[N+](=O)[O-] | 0.26
73 | O=C1C(Br)=C(N2CC2)C(=O)C(Br)=C1N1CC1 | 2.03
74 | COc1ccc2c(C)cc(=O)n3c(C)cc1c23 | 2.84
75 | O=c1[nH]c(Nc2ccccc2)nc2c1ncn2CCO | 0.83

Row | SMILES | logP
76 | CCOC(=O)C(C)Oc1ccc(Oc2cnc3cc(F)ccc3n2)cc1 (stereo not drawn) | 3.65
77 | COc1ccc(OC)c(Cc2cnc(N)nc2N)c1 | 1.7
78 | Oc1ccc(O)c2ncccc12 | 1.42
79 | CC(O)COc1ccc(Cl)cc1 (stereo not drawn) | 2.41
80 | O=C(NN=Cc1ccco1)Nc1ccccc1 | 2.52
81 | O=c1nc(N=CN2CCOCC2)ccn1C1OC(CO)C(O)C1O (stereo not drawn) | -1.66
82 | Cc1cc(Cl)c(Cl)cc1Cl | 4.56
83 | O=C(O)CCCCCNCCc1ccccc1 | -1.3
84 | CC(C)(C)NC(=O)C1CN(C(=O)OCc2ccccc2)CCN1CC(O)CC(Cc1ccccc1)C(=O)NC1c2ccccc2CC1O (stereo not drawn) | 4.67
85 | COc1ccc(-n2ccc(=O)c(O)c2C)cc1 | 1.27
86 | C#CCOc1c(Cl)cc(NC=NOc2ccccc2)cc1Cl | 4.4
87 | O=C(O)CCC(S)CCS (stereo not drawn) | 1.4
88 | Fc1ccc(SCc2ccccc2CCCN2CCOCC2)cc1 | 3.69
89 | CC(=O)NC(CC(C)C)C(=O)NC(CCC(=O)O)C(=O)NC(Cc1ccccc1)C(N)=O (stereo not drawn) (Ac-Leu-Glu-Phe-NH2; configuration not given here) | 0.47
90 | CN(C)c1nc(=O)n(C2CCCCC2)c(=O)n1C | 1.85
91 | Cc1ccc(CN2CCNC2=C[N+](=O)[O-])cn1 | -0.59
92 | C#CCOc1c(Cl)cc(NC=NOCOCC)cc1Cl | 3.5
93 | Cc1c(O)c(=O)ccn1-c1ccccc1 | 1.12
94 | CC(=O)NC(CC(=O)O)C(=O)NC(Cc1ccccc1)C(=O)NC(CC(C)C)C(N)=O (stereo not drawn) (Ac-Asp-Phe-Leu-NH2; configuration not given here) | 0.4
95 | CCOC(=O)Cc1ccc(O)c2ncccc12 | 2.26
96 | NC(=O)CC(CC(=O)O)c1ccc(Br)cc1 (stereo not drawn) | 1.12
97 | CCCCCCNC(=O)C1(O)C(C)CC2C3CCC4=CC(=O)C=CC4(C)C3(F)C(O)CC21C (stereo not drawn) | 4.54
98 | CC(C)CCNC(=O)C1(O)C(C)CC2C3CCC4=CC(=O)C=CC4(C)C3(F)C(O)CC21C (stereo not drawn) | 3.74
99 | CCCCCOc1ccccc1NC(=O)OCCN1CCCCC1 | 4.97
100 | CC1CC2C3CCC4=CC(=O)C=CC4(C)C3(F)C(O)CC2(C)C1(O)C(=O)NCCc1ccccc1 (stereo not drawn) | 3.66

Row | SMILES | logP
101 | Nc1nc(N)nc(C(Cl)(Cl)Cl)n1 | 1.24
102 | CCCCOc1cccc(NC(=O)OCCN2CCOCC2)c1 | 3.62
103 | COc1ccc(NC(=O)OCCN2CCOCC2)cc1 | 1.7
104 | O=C(O)CCCCC(S)CCS (stereo not drawn) | 2.41
105 | CN1C(=O)NC(=O)C(=O)C1=O | -1.01
106 | CCCCCCCOc1ccccc1NC(=O)OCCN1CCOCC1 | 4.51
107 | CCOC(=O)COC(=O)c1cc(Oc2ccc(C(F)(F)F)cc2Cl)ccc1[N+](=O)[O-] | 3.65
108 | Cc1ccccc1NN=C(C#N)C#N | 2.38
109 | CC(C)Oc1cccc(NC(=O)c2ccccc2C(F)(F)F)c1 | 3.7
110 | COCC(O)Cn1c(C)cnc1[N+](=O)[O-] (stereo not drawn) | 0.03
111 | Cc1cc(Cl)cc(Cl)c1 | 3.99
112 | C#CCOc1c(Cl)cc(NC=NOCC)cc1Cl | 3.6
113 | CC1=CCC2C(C1)c1c(O)cc(NS(C)(=O)=O)cc1OC2(C)C (stereo not drawn) | 3.12
114 | CCOC(=O)C(C)Oc1ccc(Oc2cnc3cc(C)ccc3n2)cc1 (stereo not drawn) | 4.11
115 | O=c1nc(N=CN2CCCC2)ccn1C1CC(O)C(CO)O1 (stereo not drawn) | -1.02
116 | COC(C)(C(=O)O)c1ccccc1 (stereo not drawn) | 1.64
117 | Cc1n[nH]c(C(=O)N2CCCCC2)c1[N+](=O)[O-] | 0.79
118 | CC1(C)CCCC(C)(C)N1[O] | 1.85
119 | NC(Cc1cccc2ccccc12)C(=O)O (stereo not drawn) | -0.22
120 | CCCCOC(=O)c1cnc2n(c1=O)C(C)CCC2 (stereo not drawn) | 1.77
121 | Clc1cccc(-c2cc(Cl)c(Cl)c(Cl)c2Cl)c1Cl | 7.32
122 | COc1ccc2cc(C(C)C(=O)OCC(=O)N(C)C)ccc2c1 (stereo not drawn) | 2.05
123 | O=[N+]([O-])C=C1NCCN1Cc1ccc(Cl)cc1 | 0.99
